Results as given in PubChem BioAssay (NCI).
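The compound was tested at five concentrations on cells cultured in 96-well plates, with a 48-hour exposure period. GI50 = concentration required for 50% inhibition of growth. The concentration for full growth arrest is given as TGI.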

Experiments:
Experiment in all cases: inhibition of tumour cell growth, NCI panel, 48 h
SW-620 colon = test system: SW-620 colon
HOP-62 NSCLC = test system: HOP-62 NSCLC
A498 renal = test system: A498 renal
HOP-92 NSCLC = test system: HOP-92 NSCLC
SR leukemia = test system: SR leukemia
M14 melanoma = test system: M14 melanoma
SK-OV-3 ovarian = test system: SK-OV-3 ovarian
NCI/ADR-RES ovarian = test system: NCI/ADR-RES ovarian
UACC-62 melanoma = test system: UACC-62 melanoma
SNB-19 CNS = test system: SNB-19 CNS
HCT-15 colon = test system: HCT-15 colon
RPMI-8226 leukemia = test system: RPMI-8226 leukemia
NCI-H23 lung = test system: NCI-H23 lung
HL-60(TB) leukemia = test system: HL-60(TB) leukemia
SK-MEL-5 melanoma = test system: SK-MEL-5 melanoma
HCT-116 colon = test system: HCT-116 colon
MDA-MB-435 = test system: MDA-MB-435
A549 NSCLC = test system: A549 NSCLC
LOX IMVI melanoma = test system: LOX IMVI melanoma
NCI-H226 lung = test system: NCI-H226 lung
HS 578T breast = test system: HS 578T breast
UACC-257 melanoma = test system: UACC-257 melanoma
DU-145 prostate = test system: DU-145 prostate
SN12C renal = test system: SN12C renal
MDA-MB-231 breast = test system: MDA-MB-231 breast
K-562 leukemia = test system: K-562 leukemia
PC-3 prostate = test system: PC-3 prostate
SK-MEL-2 melanoma = test system: SK-MEL-2 melanoma
OVCAR-3 ovarian = test system: OVCAR-3 ovarian
BT-549 breast = test system: BT-549 breast
786-0 renal = test system: 786-0 renal
CCRF-CEM leukemia = test system: CCRF-CEM leukemia
COLO 205 colon = test system: COLO 205 colon
CAKI-1 renal = test system: CAKI-1 renal
T-47D breast = test system: T-47D breast
EKVX NSCLC = test system: EKVX NSCLC
SF-268 CNS = test system: SF-268 CNS
SF-295 CNS = test system: SF-295 CNS
MALME-3M melanoma = test system: MALME-3M melanoma
OVCAR-5 ovarian = test system: OVCAR-5 ovarian
MOLT-4 leukemia = test system: MOLT-4 leukemia
IGROV1 ovarian = test system: IGROV1 ovarian
HT29 colon = test system: HT29 colon
SK-MEL-28 melanoma = test system: SK-MEL-28 melanoma
UO-31 renal = test system: UO-31 renal
MCF7 breast = test system: MCF7 breast
TK-10 renal = test system: TK-10 renal
HCC-2998 colon = test system: HCC-2998 colon
NCI-H460 lung = test system: NCI-H460 lung
OVCAR-8 ovarian = test system: OVCAR-8 ovarian
RXF 393 renal = test system: RXF 393 renal
KM12 colon = test system: KM12 colon
U251 CNS = test system: U251 CNS
SF-539 CNS = test system: SF-539 CNS
NCI-H522 lung = test system: NCI-H522 lung
ACHN renal = test system: ACHN renal
OVCAR-4 ovarian = test system: OVCAR-4 ovarian
SNB-75 CNS = test system: SNB-75 CNS

## CC(C)(O)CC(=O)NCCn1ccc2ncnc(Nc3ccc(Oc4cccc(C(F)(F)F)c4)c(Cl)c3)c21
SW-620 colon
  GI50: 3320 nM
  TGI: > 10000 nM
HOP-62 NSCLC
  GI50: 4700 nM
  TGI: > 10000 nM
A498 renal
  GI50: 2900 nM
  TGI: > 10000 nM
HOP-92 NSCLC
  GI50: 1630 nM
  TGI: > 10000 nM
SR leukemia
  GI50: 2140 nM
  TGI: > 10000 nM
M14 melanoma
  GI50: 4170 nM
  TGI: > 10000 nM
SK-OV-3 ovarian
  GI50: 284 nM
  TGI: > 10000 nM
NCI/ADR-RES ovarian
  GI50: 2580 nM
  TGI: > 10000 nM
UACC-62 melanoma
  GI50: 2960 nM
  TGI: > 10000 nM
SNB-19 CNS
  GI50: 3910 nM
  TGI: > 10000 nM
HCT-15 colon
  GI50: 2500 nM
  TGI: > 10000 nM
RPMI-8226 leukemia
  GI50: 4680 nM
  TGI: > 10000 nM
NCI-H23 lung
  GI50: 3760 nM
  TGI: > 10000 nM
HL-60(TB) leukemia
  GI50: 2880 nM
  TGI: > 10000 nM
SK-MEL-5 melanoma
  GI50: 2840 nM
  TGI: > 10000 nM
HCT-116 colon
  GI50: 2920 nM
  TGI: > 10000 nM
MDA-MB-435
  GI50: 3980 nM
  TGI: > 10000 nM
A549 NSCLC
  GI50: 3050 nM
  TGI: > 10000 nM
LOX IMVI melanoma
  GI50: 2340 nM
  TGI: > 10000 nM
NCI-H226 lung
  GI50: 3190 nM
  TGI: > 10000 nM
HS 578T breast
  GI50: 4600 nM
  TGI: > 10000 nM
UACC-257 melanoma
  TGI: > 10000 nM
DU-145 prostate
  GI50: 2960 nM
  TGI: > 10000 nM
SN12C renal
  GI50: 2000 nM
  TGI: > 10000 nM
MDA-MB-231 breast
  GI50: 4530 nM
  TGI: > 10000 nM
K-562 leukemia
  GI50: 4540 nM
  TGI: > 10000 nM
PC-3 prostate
  GI50: 3460 nM
  TGI: > 10000 nM
SK-MEL-2 melanoma
  GI50: 8660 nM
  TGI: > 10000 nM
OVCAR-3 ovarian
  GI50: 2420 nM
  TGI: > 10000 nM
BT-549 breast
  GI50: 5520 nM
  TGI: > 10000 nM
786-0 renal
  GI50: 4010 nM
  TGI: > 10000 nM
CCRF-CEM leukemia
  GI50: 3260 nM
  TGI: > 10000 nM
COLO 205 colon
  GI50: 3500 nM
  TGI: > 10000 nM
CAKI-1 renal
  GI50: 1800 nM
  TGI: > 10000 nM
T-47D breast
  GI50: 641 nM
  TGI: > 10000 nM
EKVX NSCLC
  GI50: 415 nM
  TGI: > 10000 nM
SF-268 CNS
  GI50: 3500 nM
  TGI: > 10000 nM
SF-295 CNS
  GI50: 3790 nM
  TGI: > 10000 nM
MALME-3M melanoma
  TGI: > 10000 nM
OVCAR-5 ovarian
  GI50: 2550 nM
  TGI: > 10000 nM
MOLT-4 leukemia
  GI50: 3540 nM
  TGI: > 10000 nM
IGROV1 ovarian
  GI50: 1260 nM
  TGI: > 10000 nM
HT29 colon
  GI50: 3830 nM
  TGI: > 10000 nM
SK-MEL-28 melanoma
  GI50: 4430 nM
  TGI: > 10000 nM
UO-31 renal
  GI50: 1120 nM
  TGI: > 10000 nM
MCF7 breast
  GI50: 2980 nM
  TGI: > 10000 nM
TK-10 renal
  GI50: 363 nM
  TGI: > 10000 nM
HCC-2998 colon
  GI50: 3850 nM
  TGI: > 10000 nM
NCI-H460 lung
  GI50: 3370 nM
  TGI: > 10000 nM
OVCAR-8 ovarian
  GI50: 3650 nM
  TGI: > 10000 nM
RXF 393 renal
  GI50: 1870 nM
  TGI: 4310 nM
KM12 colon
  GI50: 3670 nM
  TGI: > 10000 nM
U251 CNS
  GI50: 3450 nM
  TGI: > 10000 nM
SF-539 CNS
  GI50: 4030 nM
  TGI: > 10000 nM
NCI-H522 lung
  GI50: 535 nM
  TGI: > 10000 nM
ACHN renal
  GI50: 1150 nM
  TGI: > 10000 nM
OVCAR-4 ovarian
  GI50: 5220 nM
  TGI: > 10000 nM
SNB-75 CNS
  GI50: 4720 nM
  TGI: > 10000 nM

## CCN(CC)Cc1ccc(Nc2nccc(-c3cnn4ncccc34)n2)cc1
SW-620 colon
  GI50: 13.6 nM
  TGI: > 9070 nM
HOP-62 NSCLC
  GI50: 14.5 nM
  TGI: > 25000 nM
A498 renal
  GI50: 14.4 nM
  TGI: 45.2 nM
HOP-92 NSCLC
  GI50: 8.33 nM
  TGI: 97.7 nM
SR leukemia
  GI50: 7.95 nM
M14 melanoma
  GI50: 29.1 nM
  TGI: 84.5 nM
SK-OV-3 ovarian
  GI50: 82.5 nM
  TGI: > 25000 nM
NCI/ADR-RES ovarian
  GI50: 32 nM
  TGI: > 25000 nM
UACC-62 melanoma
  GI50: 18.8 nM
  TGI: 69.4 nM
SNB-19 CNS
  GI50: 29.6 nM
  TGI: > 25000 nM
HCT-15 colon
  GI50: 26.5 nM
  TGI: > 25000 nM
RPMI-8226 leukemia
  GI50: 74.9 nM
  TGI: 1760 nM
NCI-H23 lung
  GI50: 21.7 nM
  TGI: 126 nM
HL-60(TB) leukemia
  GI50: 6.87 nM
  TGI: 22.9 nM
SK-MEL-5 melanoma
  GI50: 41.9 nM
  TGI: 215 nM
HCT-116 colon
  GI50: 9.84 nM
  TGI: > 25000 nM
MDA-MB-435
  GI50: 23.2 nM
  TGI: 94.5 nM
A549 NSCLC
  GI50: 16.3 nM
  TGI: > 25000 nM
LOX IMVI melanoma
  GI50: 7.67 nM
  TGI: > 25000 nM
HS 578T breast
  GI50: 16.4 nM
  TGI: 117 nM
UACC-257 melanoma
  GI50: 44.3 nM
  TGI: 143 nM
DU-145 prostate
  GI50: 12 nM
  TGI: > 8560 nM
SN12C renal
  GI50: 14.1 nM
  TGI: > 25000 nM
MDA-MB-231 breast
  GI50: 22.6 nM
  TGI: > 25000 nM
K-562 leukemia
  GI50: 68.2 nM
  TGI: > 25000 nM
PC-3 prostate
  GI50: 18.4 nM
  TGI: > 25000 nM
SK-MEL-2 melanoma
  GI50: 20.8 nM
  TGI: 70.4 nM
OVCAR-3 ovarian
  GI50: 11.5 nM
  TGI: 106 nM
BT-549 breast
  GI50: 37.7 nM
  TGI: 139 nM
786-0 renal
  GI50: 13.3 nM
  TGI: > 12900 nM
CCRF-CEM leukemia
  GI50: 14.8 nM
  TGI: > 25000 nM
COLO 205 colon
  GI50: 8.29 nM
  TGI: 33.7 nM
CAKI-1 renal
  GI50: 46.9 nM
  TGI: > 9110 nM
T-47D breast
  GI50: 54.2 nM
  TGI: 6600 nM
EKVX NSCLC
  GI50: 49.8 nM
SF-268 CNS
  GI50: 14.5 nM
  TGI: 607 nM
SF-295 CNS
  GI50: 31.1 nM
  TGI: > 25000 nM
MALME-3M melanoma
  GI50: 33 nM
  TGI: 110 nM
OVCAR-5 ovarian
  GI50: 20.9 nM
  TGI: > 25000 nM
MOLT-4 leukemia
  GI50: 38.8 nM
  TGI: 144 nM
IGROV1 ovarian
  GI50: 27.5 nM
  TGI: > 20800 nM
HT29 colon
  GI50: 12.1 nM
  TGI: 98.4 nM
SK-MEL-28 melanoma
  GI50: 15 nM
  TGI: 72.7 nM
UO-31 renal
  GI50: 11.4 nM
  TGI: > 8730 nM
MCF7 breast
  GI50: 17 nM
  TGI: 14800 nM
TK-10 renal
  GI50: 23.6 nM
  TGI: 188 nM
HCC-2998 colon
  GI50: 33.3 nM
  TGI: 129 nM
NCI-H460 lung
  GI50: 16.9 nM
  TGI: 2990 nM
OVCAR-8 ovarian
  GI50: 13.3 nM
  TGI: > 25000 nM
RXF 393 renal
  GI50: 6.3 nM
  TGI: 14.7 nM
KM12 colon
  GI50: 10.1 nM
  TGI: 102 nM
U251 CNS
  GI50: 14 nM
  TGI: > 25000 nM
SF-539 CNS
  GI50: 9.73 nM
  TGI: 78.1 nM
NCI-H522 lung
  GI50: 49 nM
  TGI: 116 nM
ACHN renal
  GI50: 7.39 nM
  TGI: > 25000 nM
OVCAR-4 ovarian
  GI50: 76.6 nM
  TGI: 9990 nM
SNB-75 CNS
  GI50: 11.4 nM
  TGI: 52.9 nM
